In the test the test system is β-catenin dependent TCF/LEF transcriptional activity. In words: β-Catenin Stabilization Protocol (β-lactamase reporter assay in Jurkat cells). To be noted: Homo sapiens, 460/530 ratio, read-out: Beta Catenin IC50. It is filed as cell-based. From the text: GSK-3 phosphorylation of β-catenin targets it to the proteosome for degradation. Inhibition of GSK-3 results in accumulation of β-catenin in the cytosol of cells which through interaction with the transcription factor TCF/LEF translocates to the nucleus and drives the transcription of Wnt-dependent genes. The assay is designed to determine the level of β-catenin dependent TCF/LEF transcriptional activity in a quantitative manner through the use of a β-lactamase reporter assay in Jurkat cells dosed with a compound.
Jurkat β-catenin cells are starved overnight in assay media (1% FBS, 1× Penstrep, RPMI) in the flask. The next day Jurkat β-catenin cells are seeded in 96 well flat bottom plates at a density of 50,000 cells/well in assay media in a volume of 100 ul. The compound is added to the well at a final DMSO concentration of 0.75% and incubated at 37° C. o/n. The next day, 20 uL of 6×CCF4 dye is added to the wells and incubated at room temperature for 1-2 hours. Plates are read on the Cytofluor 4000 series multiwell plate reader and the 460/530 ratio is determined.
(In general: Reporter assays use an easily measured gene product as a stand-in for the process of interest.)

For 1 compound, IC50 results are on record in US8518953B2, “Aminopyrimidines useful as inhibitors of protein kinases” (Vertex Pharmaceuticals Incorporated, priority 2007, dated 2013).

For the compound `Cc1nc(-c2ccccc2Cl)nc(Nc2n[nH]c3ncc(F)cc23)c1C` [Compound I-1, N-(2-(2-chlorophenyl)-5,6-dimethylpyrimidin-4-yl)-5-fluoro-1H-pyrazolo[3,4-b]pyridin-3-amine], the IC50 was found to be 230 nM.

As usually defined, the IC50 is the concentration that inhibits the measured activity by half.
